According to US8012949B2, “Bisphosphonate compounds and methods with enhanced potency for multiple targets including FPPS, GGPPS, and DPPS” (The Board of Trustees of the University of Illinois, priority 2004, dated 2011):
Read-outs that look alike come from different tables or passages of the source.

Assays:
[1] = tested on: MCF-7 (breast adenocarcinoma); test: MCF-7 cell growth inhibition (MTT), incl. FOH/GGOH rescue; assay type: cell-based, human; details: for IC50: Homo sapiens, MCF7
human FPPS = target: T1, human FPPS (Homo sapiens, UniProt P14324); test: human FPPS enzyme inhibition; assay type: biochemical
T1 construct: made in house
T1 sequence (P14324 1-419): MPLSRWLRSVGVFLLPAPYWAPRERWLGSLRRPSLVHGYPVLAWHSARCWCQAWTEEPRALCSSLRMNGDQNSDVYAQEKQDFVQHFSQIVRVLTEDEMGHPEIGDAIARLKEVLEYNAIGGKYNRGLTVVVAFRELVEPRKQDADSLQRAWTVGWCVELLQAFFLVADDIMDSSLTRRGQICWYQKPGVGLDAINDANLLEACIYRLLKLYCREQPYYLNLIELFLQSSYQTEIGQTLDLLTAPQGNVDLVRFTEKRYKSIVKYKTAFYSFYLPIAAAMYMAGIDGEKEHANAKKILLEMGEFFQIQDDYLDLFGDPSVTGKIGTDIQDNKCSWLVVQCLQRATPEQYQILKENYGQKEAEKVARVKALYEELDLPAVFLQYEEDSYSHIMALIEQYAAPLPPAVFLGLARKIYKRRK
Description: To test our polypharmaceutical hypothesis, we expressed three enzymes: human FPPS, GGPPS and DPPS, and tested each for their inhibition by a series of bisphosphonates.

IC50 ([1]; Table 1, experimental, read-out: MCF-7 pIC50 (converted)): 25.1 µM | IC50 ([1]; read-out: IC50, inhibition of human breast cancer cell line MCF7): 0.401 µM | effect on FPPS (human FPPS): essentially no effect | Ki (human FPPS; Table 1, experimental, read-out: FPPS pKi (converted)): 5.01 µM
SMILES: CCCCCCCCCCOc1cccc(CC(O)(P(=O)(O)O)P(=O)(O)O)c1 [BPH-754]
rescue from growth inhibition by geranylgeraniol (GGOH) ([1]; GGOH 20 μM): rescued by GGOH
